≈ marks a conversion by molar mass, not a printed value. Blank lines part the entries; values can stand above or below the compound they belong to.
Assays:
Assay type in all cases: physicochemical
[1] = Short-term physical stability of anhydrous crystal forms (40° C./75% RH, open, 1 day; XRPD)
Description: In addition to the mesylate crystalline form I, the other anhydrous crystalline forms were stable under high humidity conditions.

[2] = Solubility analysis in biological solvents (SGF, FaSSIF, FeSSIF) and water, with pH and XRPD of residual solid
Experimental: (§1) HPLC analysis was performed by using an Agilent HPLC 1260 series instrument and the HPLC methods used for solubility and stability determinations were shown in Tables 33 and 34, respectively.

[3] = Dynamic vapor sorption (DVS) hygroscopicity
Experimental: The water vapor sorption/desorption data of the samples were collected on a dynamic vapor sorption instrument (proUmid GmbH & Co. KG, Germany). Approximately 50-70 mg of sample was placed in a sample pan previously tared and the weight of the sample was measured accurately.

[4] = Rough solubility of free base starting material, visually evaluated by solvent addition
Description: The rough solubility test of free base of compound A was visually evaluated by solvent addition, and the results were summarized in Table 1.

[5] = Solid state stability at 60° C. (closed) and 40° C./75% RH (open), XRPD and HPLC purity
Experimental: (closed) and 40° C./75 RH (open) for 14 days, XRPD analysis and purity analysis were performed at various points of time, and solid-state stability was evaluated.
as §1

XPRD Results after short-term physical stability [1]: unchanged
Structure (SMILES): Cc1c(C#Cc2cnc3ccc(N4CCC(O)CC4)nn23)cccc1C(=O)Nc1cc(Cl)cc(C(F)(F)F)c1 [Oxalate crystalline form I]

Solubility ([2]; FeSSIF, 37 °C, pH 5, fessif, thermodynamic from solid, FeSSIF, read-out: solubility): 200 to 1900 µg/mL (≈ 0.361 to 3.43 mM) | Solubility ([2]; SGF and water): < LOD
Structure (SMILES): Cc1c(C#Cc2cnc3ccc(N4CCC(O)CC4)nn23)cccc1C(=O)Nc1cc(Cl)cc(C(F)(F)F)c1 [Compound A, N-(3-chloro-5-(trifluoromethyl)phenyl)-3-((6-(4-hydroxypiperidin-1-yl)imidazo [1,2-b]pyridazin-3-yl)ethynyl)-2-methylbenzamide]

XPRD Results after short-term physical stability [1]: new crystalline form | stability of crystalline form under high humidity conditions [1]: unstable
Structure (SMILES): Cc1c(C#Cc2cnc3ccc(N4CCC(O)CC4)nn23)cccc1C(=O)Nc1cc(Cl)cc(C(F)(F)F)c1 [Mesylate crystalline form I]

crystalline form after DVS analysis (XRPD) [3]: remained unchanged | hygroscopicity (DVS) [3]: slightly hygroscopic | DVS The weight gains by vapor sorption % ([3]; 80% RH): 0.8% | DVS The weight gains by vapor sorption % ([3]; 90% RH): 0.9% | DVS The weight gains by vapor sorption % ([3]; 90% RH, listed as free base crystalline form I): ~0.9% | Solubility ([4]; 2-methyltetrahydrofuran, organic solvent or mixture, thermodynamic from solid, 2-methyltetrahydrofuran, read-out: Solubility): > 50000 µg/mL | Solubility ([4]; 2-methyltetrahydrofuran, listed as starting material): 50000 to 100000 µg/mL | Solubility ([4]; acetone, organic solvent or mixture, thermodynamic from solid, acetone, read-out: Solubility): 20000 to 50000 µg/mL (≈ 36.1 to 90.3 mM) | Solubility ([4]; acetonitrile, organic solvent or mixture, thermodynamic from solid, acetonitrile, read-out: Solubility): 1000 to 5000 µg/mL (≈ 1.81 to 9.03 mM) | Solubility ([4]; acetonitrile/water, 19/1 (v/v), organic solvent or mixture, thermodynamic from solid, acetonitrile/water, 19/1 (v/v), read-out: Solubility): 3000 to 5000 µg/mL (≈ 5.42 to 9.03 mM) | Solubility ([4]; butanone, organic solvent or mixture, thermodynamic from solid, butanone, read-out: Solubility): > 50000 µg/mL | Solubility ([4]; butanone, listed as starting material): 50000 to 100000 µg/mL | Solubility ([4]; dichloromethane, organic solvent or mixture, thermodynamic from solid, dichloromethane, read-out: Solubility): 3000 to 5000 µg/mL (≈ 5.42 to 9.03 mM) | Solubility ([4]; ethanol, organic solvent or mixture, thermodynamic from solid, ethanol, read-out: Solubility): 5000 to 20000 µg/mL (≈ 9.03 to 36.1 mM) | Solubility ([4]; ethyl acetate, organic solvent or mixture, thermodynamic from solid, ethyl acetate, read-out: Solubility): 5000 to 20000 µg/mL (≈ 9.03 to 36.1 mM) | Solubility ([4]; isopropanol, organic solvent or mixture, thermodynamic from solid, isopropanol, read-out: Solubility): 20000 to 50000 µg/mL (≈ 36.1 to 90.3 mM) | Solubility ([4]; isopropyl acetate, organic solvent or mixture, thermodynamic from solid, isopropyl acetate, read-out: Solubility): 5000 to 20000 µg/mL (≈ 9.03 to 36.1 mM) | Solubility ([4]; methanol, organic solvent or mixture, thermodynamic from solid, methanol, read-out: Solubility): 3000 to 5000 µg/mL (≈ 5.42 to 9.03 mM) | Solubility ([4]; methyl isobutyl ketone, organic solvent or mixture, thermodynamic from solid, methyl isobutyl ketone, read-out: Solubility): 5000 to 20000 µg/mL (≈ 9.03 to 36.1 mM) | Solubility ([4]; methyl tert-butyl ether, organic solvent or mixture, thermodynamic from solid, methyl tert-butyl ether, read-out: Solubility): 2000 to 5000 µg/mL (≈ 3.61 to 9.03 mM) | Solubility ([4]; n-heptane, organic solvent or mixture, thermodynamic from solid, n-heptane, read-out: Solubility): < 1000 µg/mL | Solubility ([4]; n-heptane, listed as starting material): <1000 µg/mL | Solubility ([4]; tetrahydrofuran, organic solvent or mixture, thermodynamic from solid, tetrahydrofuran, read-out: Solubility): > 50000 µg/mL | Solubility ([4]; tetrahydrofuran, listed as starting material): >100000 µg/mL | Solubility ([4]; toluene, organic solvent or mixture, thermodynamic from solid, toluene, read-out: Solubility): < 1000 µg/mL | Solubility ([4]; toluene, listed as starting material): <1000 µg/mL | Solubility ([4]; water, thermodynamic from solid, water, read-out: Solubility): < 1000 µg/mL | Solubility ([4]; water, listed as starting material): <1000 µg/mL | pH in solubility analysis ([2]; FaSSIF (medium pH 6.5), 0.5 h): 6.4 | pH in solubility analysis ([2]; FaSSIF (medium pH 6.5), 2 h): 6.3 | pH in solubility analysis ([2]; FaSSIF (medium pH 6.5), 24 h): 6.4 | XRPD of residual solid in solubility analysis ([2]; FaSSIF, 0.5 h): unchanged | Solubility ([2]; FaSSIF, 0.5 h, 37° C., target 5 mg/mL): 14 µg/mL (≈ 0.0253 mM) | Solubility ([2]; FaSSIF, 0.5 h, 37° C., target 5 mg/mL, listed as free base crystalline form I): 14 µg/mL (≈ 0.0253 mM) | Solubility ([2]; FaSSIF, 2 h, 37° C., target 5 mg/mL): 13 µg/mL (≈ 0.0235 mM) | Solubility ([2]; FaSSIF, 2 h, 37° C., target 5 mg/mL, listed as free base crystalline form I): 13 µg/mL (≈ 0.0235 mM) | XRPD of residual solid in solubility analysis ([2]; FaSSIF, 24 h): unchanged | Solubility ([2]; FaSSIF, 24 h, 37° C., target 5 mg/mL): 11 µg/mL (≈ 0.0199 mM) | pH in solubility analysis ([2]; FeSSIF (medium pH 5.0), 0.5 h): 5.0 | pH in solubility analysis ([2]; FeSSIF (medium pH 5.0), 2 h): 5.0 | pH in solubility analysis ([2]; FeSSIF (medium pH 5.0), 24 h): 5.1 | XRPD of residual solid in solubility analysis ([2]; FeSSIF, 0.5 h): unchanged | Solubility ([2]; FeSSIF, 0.5 h, 37° C., target 5 mg/mL): 181 µg/mL (≈ 0.327 mM) | Solubility ([2]; FeSSIF, 0.5 h, 37° C., target 5 mg/mL, listed as free base crystalline form I): 181 µg/mL (≈ 0.327 mM) | Solubility ([2]; FeSSIF, 2 h, 37° C., target 5 mg/mL): 221 µg/mL (≈ 0.399 mM) | Solubility ([2]; FeSSIF, 2 h, 37° C., target 5 mg/mL, listed as free base crystalline form I): 221 µg/mL (≈ 0.399 mM) | XRPD of residual solid in solubility analysis ([2]; FeSSIF, 24 h): unchanged | Solubility ([2]; FeSSIF, 24 h, 37° C., target 5 mg/mL): 418 µg/mL (≈ 0.755 mM) | pH in solubility analysis ([2]; SGF (medium pH 1.2), 0.5 h): 1.3 | pH in solubility analysis ([2]; SGF (medium pH 1.2), 2 h): 1.4 | pH in solubility analysis ([2]; SGF (medium pH 1.2), 24 h): 1.2 | XRPD of residual solid in solubility analysis ([2]; SGF, 0.5 h): unchanged | Solubility ([2]; SGF, 0.5 h, 37° C., target 5 mg/mL): <LOD | Solubility ([2]; SGF, 0.5 h, 37° C., target 5 mg/mL, listed as free base crystalline form I): <LOD/<LOD/ | Solubility ([2]; SGF, 2 h, 37° C., target 5 mg/mL): <LOD | Solubility ([2]; SGF, 2 h, 37° C., target 5 mg/mL, listed as free base crystalline form I): <LOD/<LOD/ | Solubility ([2]; SGF, 24 h, 37° C., target 5 mg/mL): <LOD | XRPD of residual solid in solubility analysis ([2]; SGF, after 2 h): amorphous | pH in solubility analysis ([2]; water (medium pH 6.6), 0.5 h): 6.6 | pH in solubility analysis ([2]; water (medium pH 6.6), 2 h): 6.5 | pH in solubility analysis ([2]; water (medium pH 6.6), 24 h): 6.4 | Solubility ([2]; water, 0.5 h, 37° C., target 5 mg/mL): <LOD/<LOD/ | Solubility ([2]; water, 2 h, 37° C., target 5 mg/mL): <LOD/<LOD/ | Solubility ([2]; water, 24 h, 37° C., target 5 mg/mL): <LOD | Purity in stability evaluation ([5]; 0 d): 98.63 Area % | Solid state stability-14 days ([5]; 60° C./Closed and 40° C./75% RH (Open), 14 days): physically and chemically stable | Purity in stability evaluation ([5]; 7 d-40° C./75% RH): 98.60 Area % | XRPD in stability evaluation ([5]; 7 d-40° C./75% RH): unchanged | Purity in stability evaluation ([5]; 7 d-60° C./capped): 98.61 Area % | XRPD in stability evaluation ([5]; 7 d-60° C./capped): unchanged | Purity in stability evaluation ([5]; 14 d-40° C./75% RH): 98.61 Area % | XRPD in stability evaluation ([5]; 14 d-40° C./75% RH): unchanged | Purity in stability evaluation ([5]; 14 d-60° C./capped): 98.70 Area % | XRPD in stability evaluation ([5]; 14 d-60° C./capped): unchanged
Structure (SMILES): Cc1c(C#Cc2cnc3ccc(N4CCC(O)CC4)nn23)cccc1C(=O)Nc1cc(Cl)cc(C(F)(F)F)c1 [Free base crystalline form I]
Solid form of residual solids in solubility analysis ([2]; summary over water, SGF, FaSSIF, FeSSIF): remained unchanged in water, FaSSIF and FeSSIF

hygroscopicity (DVS) [3]: slightly hygroscopic | DVS The weight gains by vapor sorption % ([3]; 80% RH): 0.8% | DVS The weight gains by vapor sorption % ([3]; 90% RH): 1.2% | XPRD Results after short-term physical stability [1]: unchanged
Structure (SMILES): Cc1c(C#Cc2cnc3ccc(N4CCC(O)CC4)nn23)cccc1C(=O)Nc1cc(Cl)cc(C(F)(F)F)c1 [L-camphor sulfonate crystalline form II]

XPRD Results after short-term physical stability [1]: unchanged
Structure (SMILES): Cc1c(C#Cc2cnc3ccc(N4CCC(O)CC4)nn23)cccc1C(=O)Nc1cc(Cl)cc(C(F)(F)F)c1 [Besylate crystalline form I]
